Laboratory results reported in US11008612B2, “Methods and apparatus for single molecule sequencing using energy transfer detection” (Life Technologies Corporation, priority 2009, dated 2021).

How the values were obtained:
[1] = solubility of core nanoparticles in solvents
Description: The solubility of the aliquoted samples was observed. […] Six of the aliquoted samples were centrifuged and the resulting clear, colorless supernatants were discarded.

[2] = test system: duplex Alexa fluor 546 dye-labeled-DNA template and AF647-C6-dG6P; test: Stopped-flow measurements of tpol (nucleotide incorporation kinetics); assay type: biochemical; settings: 330 nM polymerase, 100 nM template/primer duplex, 7 μM AF647-C6-dG6P, 2 mM MnCl2; tpol = 1/kpol
Experimental: The kinetics of nucleotide incorporation by B103 (exo-) (SEQ ID NO:5) and an H370R mutant (SEQ ID NO:3) DNA polymerases were measured in an Applied Photophysics SX20 stopped-flow spectrometer by monitoring changes in fluorescence from a duplex Alexa fluor 546 dye-labeled-DNA template following the mixing of the enzyme-DNA complex with dye-labeled nucleotides (AF647-C6-dG6P) in the reaction buffer containing 50 mM Tris-HCl, pH 7.5, 50 mM NaCl, 4 mM DTT, 0.2% BSA, and 2 mM MnCl2. The reactions included 330 nM recombinant DNA polymerase, 100 nM template/primer duplex, and 7 μM labeled nucleotides.
The averaged (5 traces) stopped-flow fluorescence traces (>1.5 ms) were fitted with a double exponential equation (1) to extrapolate the rates of the nucleotide binding and product release, Fluorescence=A1*e^−k^1^*t+A2*e^−k^pol^*t+C (equation 1) where A1 and A2 represent corresponding fluorescence amplitudes, C is an offset constant, and k1 and kpol are the observed rate constants for the fast and slow phases of the fluorescence transition, respectively. The dye-labeled nucleotides comprise terminal-phosphate-labeled nucleotides having an alkyl linker with a functional amine group attached to the dye. The stopped-flow techniques for measuring tpol (1/kpol) followed the techniques described by M P Roettger (2008 Biochemistry 47:9718-9727; M. Bakhtina 2009 Biochemistry 48:3197-320). 2) B103 Polymerase: Stopped-Flow Measurements of t−1

[3] = test system: [enzyme⋅DNA⋅labeled nucleotide] ternary complex (AF647-C6-dG6P); test: Stopped-flow measurements of t−1 (nucleotide dissociation from ternary complex); assay type: binding; settings: ternary complex mixed with 50 μM cognate non-labeled dNTP, 2 mM MnCl2; t−1 = 1/k−1
Experimental: The rate of the nucleotide dissociation (k−1) from the ternary complex of [enzyme⋅DNA⋅nucleotide] was measured in an Applied Photophysics SX20 stopped-flow spectrometer by monitoring changes […] a duplex Alexa fluor 546 dye-labeled-DNA template following the mixing of the [enzyme⋅DNA⋅labeled nucleotide] ternary complex with 50 μM cognate non-labeled deoxynucleoside triphosphate in a buffer containing 50 mM Tris-HCl (pH 7.5), 50 mM NaCl, 4 mM DTT, 0.2% BSA, and 2 mM MnCl2.
The ternary complexes were prepared using: 330 nM polymerase, 100 nM template/primer duplex, and 7 μM terminal phosphate-labeled nucleotides (AF647-C6-dG6P).
The averaged stopped-flow fluorescence traces (>1.5 msec) were fitted with a single exponential equation (2) to extrapolate the rate of the nucleotide dissociation (k−1) from the [enzyme⋅DNA⋅nucleotide] ternary complex. Fluorescence=A1*e^−k^−1^*t+C (equation 2) where A1 represents the corresponding fluorescence amplitude, C is an offset constant, and k−1 and the observed rate constants for the fluorescence transition. The stopped-flow techniques for measuring t−1 (1/k−1) followed the techniques described by M. Bakhtina (2009 Biochemistry 48:3197-3208).

[4] = test system: template; test: template extension activity (DNA extension assay); assay type: biochemical; settings: stock unconjugated polymerase
Experimental: A 150 nM master mix solution of a labeled hairpin oligonucleotide 221 was prepared by diluting the appropriate quantity of a 50 μM stock solution with extension buffer (50 mM TRIS, pH 8, 50 mM NaCl, 10 mM MgCl2). 450 μl of a master mix was prepared for each sample being tested.
The conjugate being tested was diluted in 450 μl of the master mix such that the final concentration of the conjugate is in the range of 10 nM to 50 nM. The positive control samples of free PKAΦ29 were similarly diluted. The sample solution was deposited in four microtiter plate wells, at 100 μl/well.
The microtiter plate was placed in a plate reader (Molecular Devices, SpectraMax M5) and set up to monitor the fluorescence as function of time (excitation 490 nm, emission 535 nm, cutoff filter 515 nm). Just prior to starting the plate reader, 2 μl of 1 mM dATP was added to each of two microtiter wells to start the extension reaction. The other two microtiter wells with sample represent no extension controls. The plate was read for an hour or until the samples reached saturation. […]

Row | Molecule | solubility in solvents [1] | tpol [2] | t−1 [3] | DNA extension assay [4] [base/sec/enzyme]
1 | CCOC(=O)CCCCCP(=O)(O)O [6-ethoxy-6-oxohexylphosphonic acid] | not soluble in hexane | – | – | –
2 | H370R: H370R mutant B103 DNA polymerase (SEQ ID NO:3) | – | 17 | 43 | –
3 | stock HP1-B104-H370R (exo-) polymerase: stock His-tagged HP1-B103 H370R exo- polymerase (SEQ ID NO:3) | – | – | – | 0.29
4 | B103 (exo-): B103 (exo-) DNA polymerase (SEQ ID NO:5) | – | 14 | 16 | –
5 | K509Y: B103 polymerase with amino acid substitution K509Y | – | 10 | 20 | –
